From paper PMC12498411, “Antidepressant-like Properties of a Selenium-Containing Pyridinium Salt Explored through In Vitro, In Vivo, and In Silico Approaches” (ACS Chemical Neuroscience, 2025) come the findings set out here.

The structures appear in SMILES notation. Like-named read-outs stand apart in the source and are kept apart here.

One data set deals with protein carbonylation. The data set is described as follows: Protein carbonylation assay, SNP-induced, brain homogenate. The following applies: for IC50: mouse brain homogenate, SNP-induced, 25–200 μM; for Concentrations effective in reducing SNP-induced protein carbonylation: tested 25–200 μM. Format: biochemical, mouse. The procedure:
Brains from mice of both sexes were used for in vitro assays, each performed in duplicate across three independent experiments (n = 3), conducted on different days.
The evaluation of protein carbonylation was performed according to a previously established protocol, using freshly prepared brain homogenate diluted at a 1:8 ratio in Tris-HCl buffer. Test compounds (10 μL), ranging in concentrations from 25 to 200 μM, were individually introduced into separate test tubes. Trolox (100 μM) served as the standard antioxidant. The diluted brain homogenate (940 μL) was then added to all tubes, followed by SNP (1 mM) as the inducing oxidative agent (50 μL). The tubes were promptly incubated at 37 °C for 2 h. Following incubation, 2 M HCl was added to blank tubes (200 μL), while 10 mM 2,4-dinitrophenyl-hydrazine (DNPH) solution was added to test tubes (200 μL). The mixture was incubated for 1 h in darkness at room temperature, with intermittent stirring every 15 min to facilitate the color reaction. Subsequently, 500 μL of denaturation buffer, 1.5 mL of ethanol, and 1.5 mL of hexane were added to all tubes, which were then vigorously shaken for 40 s. The tubes were then centrifuged at 900g for 15 min, and the supernatant was carefully decanted. The resulting pellet was washed twice with 1 mL of ethanol/ethyl acetate solution (1:1). After allowing the pellet to dry air for 2 min, it was resuspended in 1 mL of denaturation buffer and subjected to spectrophotometric analysis at 370 nm. The findings were quantified as nmol carbonyl per gram of tissue.

In a further data set the target is T1, MAO-B (Mus musculus, UniProt Q8BW75).
T1 construct: Mitochondria-enriched brain preparations were obtained in accordance with established methodology outlined in literature; from tissue; host or cells: mouse brain, mitochondria-enriched fraction
T1 sequence (Q8BW75 1-520): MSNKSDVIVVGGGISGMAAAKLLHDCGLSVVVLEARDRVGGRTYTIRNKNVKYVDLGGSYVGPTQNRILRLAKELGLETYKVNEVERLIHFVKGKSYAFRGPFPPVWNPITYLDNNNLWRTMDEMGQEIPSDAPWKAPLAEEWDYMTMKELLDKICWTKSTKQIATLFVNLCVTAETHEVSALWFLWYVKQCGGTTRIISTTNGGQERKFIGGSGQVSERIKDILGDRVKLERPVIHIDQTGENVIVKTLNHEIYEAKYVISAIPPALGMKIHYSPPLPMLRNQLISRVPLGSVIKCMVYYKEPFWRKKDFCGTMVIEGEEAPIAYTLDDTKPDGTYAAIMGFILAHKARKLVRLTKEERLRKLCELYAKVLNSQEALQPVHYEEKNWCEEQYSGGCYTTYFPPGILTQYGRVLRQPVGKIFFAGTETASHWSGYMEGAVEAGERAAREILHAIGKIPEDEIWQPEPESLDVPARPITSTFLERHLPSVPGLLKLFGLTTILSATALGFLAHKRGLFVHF
The data set is described as follows: Cerebral MAO-B activity, mitochondria-enriched mouse brain fraction (kynuramine, fluorimetric). Format: biochemical. The procedure: Mitochondria-enriched brain preparations were obtained in accordance with established methodology outlined in literature. The homogenate was prepared using the mouse brain tissue and a homogenization buffer (Na2PO4/KH2PO4/sucrose) at a ratio of 1:4 (w/v). The homogenate was centrifuged at 900g at 4 °C for 5 min. The resulting supernatant was separated and subjected to centrifugation at 12,500g for 15 min. The resulting pellet was resuspended in the homogenization buffer and subjected to a further round of centrifugation under identical conditions. Finally, the mitochondrial pellet obtained was reconstituted in an assay buffer solution (Na2PO4/KH2PO4/KCl). Protein concentration was estimated using the Bradford method and standardized as 1 mg/mL for the experiments.
MAO activity was assessed following the method outlined by Krajl, with some modifications by Matsumoto. Briefly, a 100 μL aliquot of the mitochondria-rich fraction was incubated at 37 °C for 5 min with specific MAO inhibitors: clorgyline (250 nM, a MAO-A inhibitor), or pargyline (250 nM, a MAO-B inhibitor). Then, 10 μL of each compound was introduced at varying concentrations (25–200 μM). Water (10 μL) was used in the control tubes. Afterward, the substrate, 20 μL of kynuramine dihydrobromide, was added to achieve a final concentration of 90 μM for MAO-A and 60 μM for MAO-B. The samples were incubated at 37 °C for 30 min. The reaction was halted by the addition of 300 μL of 10% trichloroacetic acid (TCA). After centrifuging at 16,000g for 15 min, an aliquot of 800 μL of the supernatant was mixed with 1 mL of 1 M sodium hydroxide (NaOH). The samples were measured using a fluorimeter with excitation at 315 nm and emission at 380 nm.

The subject of the next data set is male Swiss mice. The data set is described as follows: Open field test (OFT) before the TST. Format: in vivo, mouse. The procedure: A dosage of 5 mg/kg (intragastric route, i.g., by gavage) was administered to all groups receiving the salts. […] The TST was conducted 30 min following drug administration, with the OFT being performed 4 min prior to the TST.
Following the selection of the most promising salt during screening (Compound 3B), an analysis of the compound’s time-response curve was conducted in the mouse TST. For this purpose, the animals were divided into five groups: (I) control (water; i.g.), (II) the group receiving compound 3B 15 min prior to TST, (III) the group receiving compound 3B 30 min before TST, (IV) the group receiving compound 3B 60 min before TST, and (V) the group receiving compound 3B 120 min before TST. The dosage of salt was standardized at 5 mg/kg (i.g). OFT was conducted 4 min prior to the TST.
After choosing a suitable preadministration time, the dose–response curve of the compound at this fixed time was analyzed. The animals were categorized into […]: I) a control group (administered water; i.g.) and groups II, III, IV and V) receiving compound 3B at doses of 0.5 mg/kg, 1 mg/kg, 2.5 mg/kg, and 5 mg/kg (i.g.), respectively. […] Thirty minutes postadministration, the animals underwent the TST. Four minutes prior to the TST, they underwent the OFT.
The aim of this behavioral test is to assess the locomotion and exploration behavior of the animals using an open field apparatus measuring 30 cm × 30 cm × 15 cm, constructed from plywood with a floor divided into nine quadrants, facilitating free movement for the animals. During the OFT, the animals were positioned in the center of the apparatus and subjected to a 5 min testing period, following the protocol outlined in literature. The number of quadrant crossings and rearings was recorded and quantified during testing phase.

For `O=C(C[n+]1ccccc1C[Se]c1ccccc1)c1ccccc1.[Br-]` [Compound 3A, 1-(2-oxo-2-phenylethyl)-2-((phenylselanyl)methyl)pyridin-1-ium bromide], in the data set on protein carbonylation, the half-inhibitory concentration (IC50) was found to be 130 µM and the “Concentrations effective in reducing SNP-induced protein carbonylation” value was “all concentrations”. Also, the IC50 against MAO-B came out at 129 µM.

Consider `Cc1ccc(C(=O)C[n+]2ccccc2C[Se]c2ccccc2)cc1` [Compound 3B, 1-(2-oxo-2-(p-tolyl)ethyl)-2-((phenylselanyl)methyl)pyridin-1-ium bromide], for which the IC50 turned out to be 230 µM with protein carbonylation and 91.1 µM at MAO-B (mouse brain mitochondria-rich fraction, 25–200 μM, kynuramine 60 μM, read-out: IC50 for MAO-B). For the same compound, the “Concentrations effective in reducing SNP-induced protein carbonylation” value in the data set on protein carbonylation stood at 200 µM. The “Concentrations with significant inhibition of MAO-B activity” value on MAO-B (tested 25–200 μM, Dunnett vs control) was no less than 50 µM. The “OFT locomotor and exploratory activities, time-response experiment” value in the data set with male Swiss mice (5 mg/kg i.g., 15–120 min) was “did not affect the locomotor and exploratory activities”. Moreover, the “OFT number of crossings, dose–response experiment” value in the data set with male Swiss mice (0.5–5 mg/kg i.g.) is on record as “no changes were observed”. Besides, the “OFT number of rearings, dose–response experiment” value in the data set on male Swiss mice (3B 0.5–5 mg/kg i.g., fluoxetine 20 mg/kg i.p.) is recorded as “did not impact on the exploratory behavior profile”.
